Results: US8288087B2, “Use of melanoma inhibitory activity (MIA) protein as an early indicator for therapeutic response in melanoma” (Novartis AG, priority 2006, dated 2012)
Entries after “also recorded” stand apart in the source; their conditions may differ.

Key:
Format in all cases: in vivo, mouse
[1] = tested on: A375M human melanoma xenograft; test: A375M human melanoma xenograft study, tumor volume and plasma MIA ELISA (Example 2)
Experimental: (§1) MIA ELISA Assay: Equal numbers of human melanoma and colorectal carcinoma cells (˜250,000 cells for each cell line) were seeded onto tissue culture plates and the culture medium for each cell line was collected 48 hr later. Levels of MIA in culture media or plasma were measured by a commercial single-step ELISA kit according to the manufacturer's protocol (Roche Diagnostics Corporation, Indianapolis, Ind.). MIA concentrations in test samples were calculated using a standard curve ranging from 3-37 ng/ml. When the MIA concentration exceeded the highest standard concentration, the samples were diluted 1:5 and assayed again to have the results fall within the linear range of the standard curve. Data were evaluated using the Student t-test (two-tailed distribution, two-sample unequal variance), using P≦0.05 as the level of significance.
(§2) An A375 human melanoma xenograft study was carried out with female athymic nu/nu mice (8-12 weeks old) purchased from Charles River Laboratories (Wilmington, Mass.). Approximately 2.5×10^6 cells were implanted subcutaneously (s.c.) into the hind flank region of mice. Plasma samples were collected when tumors reached an average size of 250 mm^3 (n=10) and stored at −80° C. prior to MIA analysis. Dosing typically began when tumors reached an average size of 250 mm^3. Caliper measurements were performed twice weekly to estimate tumor volume using the formula: (a×b^2)×0.5, where “a” is the largest diameter and “b” is the length perpendicular to the diameter.
In a first experiment, A375M human melanoma tumor-bearing mice (n=5) were randomized and dosed orally with CHIR-265 at 100 mg/kg (n=5) or vehicle (n=5) once every other day. Tumor-bearing animals treated with PEG400 buffer alone were used as vehicle control. […] Plasma samples were collected 48 hours post the fourth dose (day 10) for MIA analysis by ELISA.

[2] = tested on: MEXF 276 human melanoma tumor explant xenograft; test: MEXF 276 human melanoma tumor explant xenograft study, tumor volume and plasma MIA ELISA; details: for Tumor Volume: day 20, mean ± SE; for tumor growth inhibition: day 20
Experimental: as §1
(§3) An MEXF 276 human melanoma tumor explant xenograft study and an MEXF1341 human melanoma tumor explant xenograft study were carried out as follows. The MEXF 276 human melanoma tumor cells and the MEXF1341 human melanoma tumor explant cells were originally derived from surgical specimens isolated from different melanoma patients (obtained from Oncotest GmbH, Institute for Experimental Oncology, Frieburg, Germany) and propagated as xenografts in nude mice. After removal of tumors from donor mice, samples were cut into fragments (1-2 mm diameter) and placed in RPMI 1640 medium before subcutaneous implantation into recipient male NMRI nu/nu mice (6-8 weeks old). Dosing typically began when tumors reached an average size of 6-8 mm in diameter. Animals were maintained under clean-room conditions in sterile filter-top cages and received sterile rodent chow and water ad libitum.
In a second experiment, MEXF 276 human melanoma tumor-bearing mice were randomized and dosed orally with CHIR-265 (100 or 10 mg/kg) or sorafenib (100 mg/kg) n=4/group. The first day of dosing was designated as Day 0. As such, the dosing schedule for CHIR-265 was 10 mg/kg on Day 0, 2, 4, 6, 14, 16 and 20. For CHIR-265 the dosing schedule was 100 mg/kg on Day 0, 2, 14, 16 and 20. Finally, the dosing schedule for sorafenib and PEG400 vehicle was 100 mg/kg every day on Day 0-20. […] Plasma samples were collected 4 hr after the last dose on Day 20 and stored at −80° C. prior to MIA analysis. MIA plasma levels were determined by an ELISA assay carried out as described in EXAMPLE 1.

[3] = tested on: MEXF 1341 human melanoma tumor explant xenograft; test: MEXF 1341 human melanoma tumor explant xenograft study, tumor volume and plasma MIA ELISA; details: for tumor growth inhibition, significance vs. vehicle: MEXF 1341 (text prints MEXF 276), P>0.08 v. vehicle; for tumor growth inhibition, significance vs. vehicle / Tumor Volume: day 20; for Tumor Volume: mean ± SE
Experimental: as §1, §3
In a third experiment, MEXF 1341 human melanoma tumor-bearing mice were randomized and dosed orally with CHIR-265 (100 or 10 mg/kg) or sorafenib (100 mg/kg) n=4/group. The first day of dosing was designated as Day 0. As such, the dosing schedule for CHIR-265 (10 mg/kg) was 10 mg/kg on Day 0, 2, 4, 6, 14, 16 and 20. For CHIR-265 (100 mg/kg) the dosing schedule was 100 mg/kg on Day 0, 2, 14, 16 and 20. Finally, the dosing schedule for sorafenib and PEG400 vehicle was 100 mg/kg every day on Day 0-20. […] Plasma samples were collected 4 hr after the last dose on Day 20 and stored at −80° C. prior to MIA analysis. MIA plasma levels were determined by an ELISA assay carried out as described in EXAMPLE 1.

[4] = tested on: A375M human melanoma xenograft; test: Kinetics of plasma MIA and tumor volume in A375M tumor-bearing mice (Example 3)
Experimental: as §1, §2
Methods: The kinetics of MIA concentrations in plasma following drug treatment were investigated as follows. A375M tumor-bearing mice were dosed orally either with CHIR-265 (100 mg/kg), CHIR-258 (60 mg/kg) or vehicle (n=10/group). Plasma samples were collected before dosing was initiated, and again on day 3, 8 and 13. Tumor volumes were measured at the same time points, using methods described in EXAMPLE 2.

[5] = tested on: CHL-1 human melanoma xenograft; test: CHL-1 human melanoma xenograft study, tumor volume and plasma MIA ELISA (Example 4)
Experimental: as §1
A CHL-1 human melanoma xenograft study was carried out with female athymic nu/nu mice (8-12 weeks old) purchased from Charles River Laboratories (Wilmington, Mass.). Approximately 5×10^6 tumor cells in Matrigel™ were implanted subcutaneously (s.c.) into the hind flank region of mice. Dosing began when tumors reached an average size of 200 mm^3. Caliper measurements were performed twice weekly to estimate tumor volume using the formula: (a×b^2)×0.5, where “a” is the largest diameter and “b” is the length perpendicular to the diameter. […]

Question: `Cn1c(Nc2ccc(C(F)(F)F)cc2)nc2cc(Oc3ccnc(-c4ncc(C(F)(F)F)[nH]4)c3)ccc21` [CHIR-265, {1-Methyl-5-[2-(5-trifluoromethyl-1H-imidazol-2-yl)-pyridin-4-yloxy]-1H-benzoimidazol-2-yl}-(4-trifluoromethyl-phenyl)-amine] was tested. Which “tumor regression as compared to initial tumor volume (250 mm^3)” value ([1]; CHIR-265 100 mg/kg oral every other day, after four doses) did it give?
Answer: ~50%

Question: What about the “tumor growth inhibition compared to vehicle treatment” value ([1]; CHIR-265 100 mg/kg oral every other day, day 10) of the same molecule?
Answer: 70%

Question: What about the “Tumor Volume” value ([1]; CHIR-265 100 mg/kg oral every other day, day 10, mean ± SE, 100 mg/kg) of the same molecule?
Answer: 133±14.1 mm^3

Question: And the “vehicle median MIA concentration fold higher than CHIR-265 treated mice” value ([1]; CHIR-265 100 mg/kg, day 10, n=5/group)?
Answer: 17 fold

Question: What about the MIA plasma levels ([1]; after four doses of CHIR-265 100 mg/kg, plasma 48 h post fourth dose (day 10)) of the same molecule?
Answer: ~4 ng/mL

Question: What about the “Tumor Volume” value ([2]; CHIR-265 100 mg/kg oral, 100 mg/kg) of the same molecule?
Answer: 19±2.9 mm^3

Question: And the “Tumor Volume” value ([2]; CHIR-265 (10 mg/ml) per table head, 10 mg/kg in text, oral, 10 mg/kg)?
Answer: 58±15.2 mm^3

Question: What about the tumor growth inhibition ([2]; CHIR-265 at both doses (100 and 10 mg/kg)) of the same molecule?
Answer: > 97%

Question: And the “tumor growth inhibition, significance vs. vehicle” value [3]?
Answer: did not cause significant tumor growth inhibition

Question: What about the “Tumor Volume” value ([3]; MEXF 1341, CHIR-265 100 mg/kg oral, 100 mg/kg) of the same molecule?
Answer: 575±214 mm^3

Question: What about the “Tumor Volume” value ([3]; MEXF 1341, CHIR-265 (10 mg/ml) per table head, 10 mg/kg in text, oral, 10 mg/kg) of the same molecule?
Answer: 1190±291 mm^3

Question: What about the “reduction in plasma MIA” value ([3]; MEXF 1341, both CHIR-265 treatments (100 and 10 mg/kg), Day 20, P<0.02) of the same molecule?
Answer: 2 fold

Question: What about the “MIA plasma concentration (median)” value ([4]; CHIR-265 100 mg/kg oral, day 3, baseline 27.8) of the same molecule?
Answer: 10.4 ng/mL

Question: What about the “reduction in MIA concentration vs. baseline” value ([4]; CHIR-265 100 mg/kg, day 3) of the same molecule?
Answer: 62%

Question: And the tumor regression ([4]; CHIR-265 100 mg/kg, day 3)?
Answer: 29%

Question: And the MIA plasma concentration ([4]; CHIR-265 100 mg/kg, day 13)?
Answer: undetectable

Question: `CNC(=O)c1cc(Oc2ccc(NC(=O)Nc3ccc(Cl)c(C(F)(F)F)c3)cc2)ccn1` [Sorafenib, reference compound] was tested. Which tumor growth inhibition ([2]; sorafenib 100 mg/kg every day) did it give?
Answer: 69%

Question: What about the “Tumor Volume” value ([2]; sorafenib 100 mg/kg oral every day) of the same molecule?
Answer: 887±196 mm^3

Question: What about the “median plasma MIA concentration” value ([2]; sorafenib 100 mg/kg, plasma 4 hr after last dose on Day 20) of the same molecule?
Answer: 28.9 ng/mL

Question: And the “tumor growth inhibition, significance vs. vehicle” value [3]?
Answer: did not cause significant tumor growth inhibition

Question: What about the “Tumor Volume” value ([3]; MEXF 1341, sorafenib 100 mg/kg oral every day) of the same molecule?
Answer: 1338±264 mm^3

Question: And the “effect on plasma MIA levels” value ([3]; MEXF 1341, sorafenib 100 mg/kg, Day 20, P>0.17)?
Answer: reduced plasma MIA levels

Question: How did the “change in MIA plasma concentration vs. vehicle” value ([4]; CHIR-258 60 mg/kg oral, day 3, 60 mg/kg) turn out when `CN1CCN(c2ccc3[nH]c(-c4c(N)c5c(F)cccc5[nH]c4=O)nc3c2)CC1` [CHIR-258, 4-amino-5-fluoro-3-[5-(4-methylpiperazin-1-yl)-1H-benzimidazol-2-yl]quinolin-2(1H)-one] was run?
Answer: statistically significant lower levels; also recorded: statistically significant decrease in MIA plasma concentration

Question: What about the “reduction in MIA levels compared to baseline” value ([4]; CHIR-258 60 mg/kg oral, day 13) of the same molecule?
Answer: 63%

Question: And the “effect on tumor volume / tumor burden vs. vehicle” value ([4]; CHIR-258 60 mg/kg oral, from day 8, 60 mg/kg)?
Answer: tumor growth inhibition, however regressions were not observed; also recorded: tumor growth inhibition; also recorded: statistically significant reduction in tumor burden

Question: What about the “effect on tumor volume vs. vehicle” value ([5]; CHIR-258 30 mg/kg or 80 mg/kg oral once daily, by day 8, P<0.03) of the same molecule?
Answer: significant tumor growth inhibition

Question: What about the “plasma MIA levels” value ([5]; both CHIR-258 groups (30 and 80 mg/kg), day 8 and subsequent time points) of the same molecule?
Answer: not detectable
